Experiments:
EGFR = biological target: T1, EGFR (Homo sapiens, UniProt P00533); test: EGFR Whole Cell Kinase Assay; assay type: cell-based; settings: EGFR/C7 NIH3T3 cells, EGF 25 nM; quantity and unit inferred; read-out: ELISA DATA, EGFR
T1 construct: expressed in transfected cells; host or cells: NIH3T3 clone C7 (EGFR/C7)
From the text: The following examples illustrates the ability of the exemplary compounds to inhibit receptor tyrosine kinases, such as HER2 and/or EGFR. The following target cells were used for cellular kinase assays: NIH3T3 clone C7 (Honegger et al., supra) engineered to over-express human EGF receptor; NIH3T3 cells engineered to over-express a chimeric receptor containing the EGFR extracellular domain and the HER2 intracellular kinase domain; the human mammary carcinoma line BT474 (ATCC HTB2) expressing HER2; and the human glioblastoma line U1242 that expresses PDGFR-beta. Growth assays were carried out using human mammary epithelial SKBR3 (ATCC HTB30) cells (SKBR3 cells over-express HER2), SKOV3 (ATCC HTB77) human ovarian cancer cell line (SKOV3 cells also over-express HER2), A431 cells (A431 cells over-express EGFR) MCF7 human breast carcinoma cells, MCF7 cells overexpressing the HER2 kinase (MCF7-HER2), NIH3T3 cells, and NIH3T3 cells overexpressing the HER2 kinase (3T3-HER2.
EGFR Whole Cell Kinase Assay
EGFR kinase activity (EGFR-3T3 assay) in whole cells was measured as described below:
1) EGF Ligand: stock concentration=16.5 μM; EGF 201, TOYOBO, Co., Ltd. Japan.
2) 05-101 (UBI) (a monoclonal antibody recognizing an EGFR extracellular domain).
3) Anti-Phosphotyosine antibody (polyclonal) (made according to Fendley et al., Cancer Research 50:1550-1558, 1990). […]

[1] = system: IGF-1R protein tyrosine kinase; settings: Sepp-Lorenzino et al., Abstract, 1994; cited from earlier work
[2] = system: human breast cancer cells; settings: Sepp-Lorenzino et al., Abstract, 1994; cited from earlier work

T1 sequence (P00533 25-1210): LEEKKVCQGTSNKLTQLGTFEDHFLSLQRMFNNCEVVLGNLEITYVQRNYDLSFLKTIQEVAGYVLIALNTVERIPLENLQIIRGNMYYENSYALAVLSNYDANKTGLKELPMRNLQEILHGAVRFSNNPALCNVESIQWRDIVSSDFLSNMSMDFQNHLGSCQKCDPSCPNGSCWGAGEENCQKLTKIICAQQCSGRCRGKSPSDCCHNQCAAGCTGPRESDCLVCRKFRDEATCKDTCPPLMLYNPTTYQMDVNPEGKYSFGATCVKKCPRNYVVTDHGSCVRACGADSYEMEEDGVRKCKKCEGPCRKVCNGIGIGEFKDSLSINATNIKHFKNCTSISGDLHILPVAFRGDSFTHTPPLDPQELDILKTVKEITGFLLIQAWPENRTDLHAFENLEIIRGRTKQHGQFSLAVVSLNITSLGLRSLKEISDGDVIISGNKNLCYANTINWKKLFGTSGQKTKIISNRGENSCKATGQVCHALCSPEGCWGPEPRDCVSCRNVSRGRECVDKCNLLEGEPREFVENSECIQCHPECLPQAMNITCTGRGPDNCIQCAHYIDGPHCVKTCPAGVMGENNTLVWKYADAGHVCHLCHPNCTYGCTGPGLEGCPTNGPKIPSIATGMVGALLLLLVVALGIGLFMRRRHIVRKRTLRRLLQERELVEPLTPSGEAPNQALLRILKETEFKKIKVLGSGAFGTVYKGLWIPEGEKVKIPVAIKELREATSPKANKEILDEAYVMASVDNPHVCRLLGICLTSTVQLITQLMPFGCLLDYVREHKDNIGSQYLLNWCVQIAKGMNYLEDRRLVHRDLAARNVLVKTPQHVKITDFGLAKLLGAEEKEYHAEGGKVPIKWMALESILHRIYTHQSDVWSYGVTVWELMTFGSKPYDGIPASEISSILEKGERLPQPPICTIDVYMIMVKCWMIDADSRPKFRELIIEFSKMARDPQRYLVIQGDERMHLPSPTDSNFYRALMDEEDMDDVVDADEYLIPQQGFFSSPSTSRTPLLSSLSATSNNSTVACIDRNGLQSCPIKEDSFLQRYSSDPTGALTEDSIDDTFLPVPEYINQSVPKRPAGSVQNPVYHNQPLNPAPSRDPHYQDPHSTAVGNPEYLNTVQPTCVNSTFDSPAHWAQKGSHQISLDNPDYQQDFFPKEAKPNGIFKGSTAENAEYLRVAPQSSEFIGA

Structure (SMILES) | IC50 (EGFR) [µM] | said to inhibit the IGF-1R protein tyrosine kinase [1] | said to inhibit cellular proliferation in human breast cancer cells [2]
N#C/C(=C\c1ccc([N+](=O)[O-])s1)S(=O)(=O)c1ccccn1 [Example G772, (E)-3-(2-nitrothien-5-yl)-2-[(pyridin-2-yl)sulfonyl]acrylonitrile] | > 100 |  | 
COC1C=CC=C(C)C(=O)NC2=CC(=O)C=C(C2=O)C(OC)C(C)CC(OC)C(OC)C(C)C=C(C)C1OC(N)=O (stereo not shown) [Herbimycin A] |  | inhibit | inhibit
N#C/C(=C\c1ccc([N+](=O)[O-])s1)S(=O)(=O)c1ccccc1 [Example G771, (E)-3-(2-nitrothien-5-yl)-2-phenylsulfonylacrylonitrile] | > 100 |  | 
